According to US8268882B2 (priority 2009, dated 2012):
Like-named read-outs stand apart in the source and are kept apart here.

Legend:
[1] = in vitro; conditions: human
[2] = tested on: Human T cell lymphoma (Jurkat) cells
[3] = tested on: IL-2 production in Jurkat cells; test: cells; type: cell-based, human; conditions: for IC50: read-out: immunosuppression IL-2 (IC50)

Compound	EC50 [1]	cytotoxicity in MTT assay compared with triptolide [2]	cytotoxicity to Jurkat cells [2]	inhibition of IL-2 production [3]	IC50 ([3]; Homo sapiens, Jurkat, 24 h)	EC50 ([2]; read-out: Viability/Cytotoxicity MTT (ED50), Jurkat cells, 24 h culture, test compounds incubated in serum for 24 hrs)	IC50 ([3]; Jurkat cells stimulated with PMA and PHA, 24 hrs, test compounds incubated in serum for 24 hrs)
CC(C)[C@]12O[C@H]1[C@@H]1O[C@]13[C@@]1(OC(=O)O[C@H]21)[C@H](Cl)C[C@H]1C2=C(CC[C@@]13C)C(=O)OC2 [PG762]	60 nM	comparable potency	cytotoxic to Jurkat cells	inhibited IL-2 production	9 nM		
CC(C)[C@]12O[C@H]1[C@@H]1O[C@]13[C@]1(O[C@H]1C[C@H]1C4=C(CC[C@@]13C)C(=O)OC4)[C@@H]2OC(=O)C(=O)O[C@@H]1[C@@]2(C(C)C)O[C@H]2[C@@H]2O[C@]23[C@]12O[C@H]2C[C@H]1C2=C(CC[C@@]13C)C(=O)OC2 [PG782]	53 nM	more potent than triptolide	cytotoxic to Jurkat cells	inhibited IL-2 production	2 nM		
triptolide [PG490, reference compound]						60 nM	4 nM
CC(C)[C@]1(O)[C@H](Cl)[C@@H]2O[C@]23[C@@]2(OC(=O)O[C@H]12)[C@H](Cl)C[C@H]1C2=C(CC[C@@]13C)C(=O)OC2 [PG757]	32 nM	significantly more cytotoxic	cytotoxic to Jurkat cells	inhibited IL-2 production	9 nM		
